# Test results: patent US20250230193A1, “CYCLIC COMPOUND HAVING SELECTIVE KRAS INHIBITORY EFFECT ON HRAS AND NRAS” (CHUGAI SEIYAKU KABUSHIKI KAISHA, priority 2022, published 2025)
# *1 amine or outer side, *2 acyl side, *3 side chain or, on linkers, in order; H or OH if unused. Where a SMILES comes first, the peptide text is derived from it. Bridges are numbered along the chain shown (N, C = ends). [ ]: non-standard residue; d: D form. The star is where a group is joined. hPhe(3,5-F2-4-CF3) = N[C@@H](CCc1cc(F)c(C(F)(F)F)c(F)c1)C(=O)O; hPhe(3-Cl-4-CF3) = N[C@@H](CCc1ccc(C(F)(F)F)c(Cl)c1)C(=O)O; X35 = Cc1ccc(C[C@@H](C(=O)[*:2])N(CCC(C)(C)C)[*:1])cc1; NPrPhe(4-CF3) = CCCN[C@@H](Cc1ccc(C(F)(F)F)cc1)C(=O)O; NEtPhe(4-Me) = CCN[C@@H](Cc1ccc(C)cc1)C(=O)O; NMeGly(cPent) = CN[C@H](C(=O)O)C1CCCC1; Nva(3-Et) = CCC(CC)[C@H](N)C(=O)O; Hyp = O=C(O)[C@@H]1C[C@@H](O)CN1; NMeD = CN[C@@H](CC(=O)O)C(=O)O; NMeL = CN[C@@H](CC(C)C)C(=O)O; Morpholide = C1CN(*)CCO1; NMeA = CN[C@@H](C)C(=O)O; NMeAib = CNC(C)(C)C(=O)O; Nle = CCCC[C@H](N)C(=O)O; Piperidide = C1CCN(*)CC1; Ac5c = NC1(C(=O)O)CCCC1; Aze = O=C(O)[C@@H]1CCN1; Sar = CNCC(=O)O
# Key:
# [1] = biological target: GDP-bound HRAS wild-type protein (Homo sapiens, UniProt P01112); assay: Binding to HRAS by surface plasmon resonance (SPR), Single Cycle Kinetics; conditions: for HRAS/KRAS (ratio of KD value with respect to HRAS to KD value with respect to KRAS): GDP-bound HRAS wild-type vs GDP-bound KRAS wild-type
# [2] = biological target: GDP-bound NRAS wild-type protein (Homo sapiens, UniProt P01111); assay: Binding to NRAS by surface plasmon resonance (SPR), Single Cycle Kinetics; conditions: for NRAS/KRAS (ratio of KD value with respect to NRAS to KD value with respect to KRAS): GDP-bound NRAS wild-type vs GDP-bound KRAS wild-type
# GDP-bound NRAS wild-type protein, sequence (P01111 whole entry): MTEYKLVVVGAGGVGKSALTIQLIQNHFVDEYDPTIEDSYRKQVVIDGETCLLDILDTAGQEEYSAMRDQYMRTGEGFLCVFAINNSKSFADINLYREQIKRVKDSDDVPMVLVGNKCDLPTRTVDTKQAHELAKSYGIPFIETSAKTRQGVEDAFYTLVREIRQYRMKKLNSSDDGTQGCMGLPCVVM
# GDP-bound HRAS wild-type protein, sequence (P01112 whole entry): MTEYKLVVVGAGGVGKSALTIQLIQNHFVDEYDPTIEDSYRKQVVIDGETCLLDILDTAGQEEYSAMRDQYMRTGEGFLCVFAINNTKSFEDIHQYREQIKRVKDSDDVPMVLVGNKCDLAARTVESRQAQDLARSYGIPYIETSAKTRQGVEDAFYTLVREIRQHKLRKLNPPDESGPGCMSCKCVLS
smiles,measurement,setting,value
"CCCN1C(=O)CN(C)C(=O)CN(C)C(=O)[C@H](C(CC)CC)NC(=O)[C@H](CC(C)C)N(C)C(=O)C[C@@H](C(=O)N(C)C)N(C)C(=O)[C@H](C2CCCC2)N(C)C(=O)C2(CCCC2)NC(=O)[C@@H]2CCCN2C(=O)[C@H](CCc2cc(F)c(C(F)(F)F)c(F)c2)NC(=O)CN(C)C(=O)[C@@H]1Cc1ccc(C(F)(F)F)cc1 [PP0747] ([NMeL][Nva(3-Et)][Sar][Sar][NPrPhe(4-CF3)][Sar][hPhe(3,5-F2-4-CF3)]P[Ac5c][NMeGly(cPent)][NMeD]-NMe2; lactam N-11)",HRAS/KRAS (ratio of KD value with respect to GDP-bound HRAS wild-type protein to KD value with respect to KRAS),[1]; SPR,C (A compound having a KD ratio of 0.1 or more and less than 3 is denoted as C)
same,NRAS/KRAS (ratio of KD value with respect to GDP-bound NRAS wild-type protein to KD value with respect to KRAS),[2]; SPR,B (a compound having 3 or more and less than 10 is denoted as B)
CCOC[C@H]1C(=O)N[C@@H]([C@@H](C)CC)C(=O)N(C2CC2)CC(=O)N(C)[C@H]2C/C=C\CCN(C2=O)[C@@H](Cc2ccc(C(F)(F)F)cc2)C(=O)N(C)CC(=O)N[C@@H](CCc2ccc(C(F)(F)F)c(OC)c2)C(=O)N2C[C@H](OCC)C[C@H]2C(=O)N(C)C2(CCC2)C(=O)N(C)[C@@H](C(CC)CC)C(=O)N(C)[C@H](C(=O)N(C)C)CC(=O)N1C [PP2315],HRAS/KRAS (ratio of KD value with respect to HRAS to KD value with respect to KRAS),[1]; SPR,A (a compound having 10 or more and less than 20 is denoted as A)
same,NRAS/KRAS (ratio of KD value with respect to NRAS to KD value with respect to KRAS),[2]; SPR,A (a compound having 10 or more and less than 20 is denoted as A)
CCCN1C(=O)[C@@H]2CCN2C(=O)[C@H](C)N(C)C(=O)[C@H]([C@@H](C)CC)NC(=O)[C@H](CC(C)C)N(C)C(=O)C[C@@H](C(=O)N2CCOCC2)NC(=O)[C@H](C2CCCC2)N(C)C(=O)C2(CCCC2)NC(=O)[C@@H]2C[C@@H](OCC)CN2C(=O)[C@H](CCc2ccc(C(F)(F)F)c(Cl)c2)NC(=O)CN(C)C(=O)[C@@H]1Cc1ccc(C(F)(F)F)cc1 [PP0347] ([NMeL]I[NMeA][Aze][NPrPhe(4-CF3)][Sar][hPhe(3-Cl-4-CF3)][Hyp](Et)[Ac5c][NMeGly(cPent)]D-Morpholide; lactam N-11),HRAS/KRAS (ratio of KD for GDP-bound HRAS wild-type to KD for KRAS),[1]; SPR,B (a compound having 3 or more and less than 10 is denoted as B)
same,NRAS/KRAS (ratio of KD for GDP-bound NRAS wild-type to KD for KRAS),[2]; SPR,C (A compound having a KD ratio of 0.1 or more and less than 3 is denoted as C)
CCO[C@@H]1CCN2C(=O)[C@H](CCc3cc(F)c(C(F)(F)F)c(F)c3)NC(=O)CN(C)C(=O)[C@H](Cc3ccc(C(F)(F)F)cc3)N3CCCCC[C@@H](C3=O)N(C)C(=O)CN(C)C(=O)[C@H]([C@@H](C)CC)NC(=O)[C@H](CC(C)C)N(C)C(=O)C[C@@H](C(=O)N3CCOCC3)N(C)C(=O)[C@H](C3CCCC3)N(C)C(=O)C3(CCC3)NC(=O)[C@H]12 [PP1082],HRAS/KRAS (ratio of KD value with respect to HRAS to KD value with respect to KRAS),"[1]; KD ratio, SPR",B (a compound having 3 or more and less than 10 is denoted as B)
same,NRAS/KRAS (ratio of KD value with respect to NRAS to KD value with respect to KRAS),"[2]; KD ratio, SPR",A (a compound having 10 or more and less than 20 is denoted as A)
CCC[C@H]1C(=O)N[C@@H]([C@@H](C)CC)C(=O)N2CCC[C@H]2C(=O)N(C)[C@H]2C/C=C\CCN(C2=O)[C@@H](Cc2ccc(C)cc2)C(=O)N(C)CC(=O)N[C@@H](CCc2ccc(Cl)c(Cl)c2)C(=O)N2C[C@H](OCC)C[C@H]2C(=O)NC2(CC(C)(C)C2)C(=O)N(C)[C@@H](C(CC)CC)C(=O)N(C)[C@H](C(=O)N(C)C)CC(=O)N1C [PP2638],HRAS/KRAS (ratio of KD value with respect to GDP-bound HRAS wild-type protein to KD value with respect to KRAS),[1]; class symbols,A (a compound having 10 or more and less than 20 is denoted as A)
same,NRAS/KRAS (ratio of KD value with respect to GDP-bound NRAS wild-type protein to KD value with respect to KRAS),[2]; class symbols,AA (a compound having 20 or more is denoted as AA)
CCCC[C@@H]1NC(=O)[C@H](CCc2ccc(C(F)(F)F)c(Cl)c2)NC(=O)CN(C)C(=O)[C@H](Cc2ccc(C)cc2)N(CC)C(=O)CN(C)C(=O)CN(C)C(=O)[C@H]([C@@H](C)CC)NC(=O)[C@H](CC(C)C)N(C)C(=O)C[C@@H](C(=O)N2CCCCC2)N(C)C(=O)[C@H](CC(C)C)NC(=O)C(C)(C)N(C)C1=O [PP0050] ([NMeL]I[Sar][Sar][NEtPhe(4-Me)][Sar][hPhe(3-Cl-4-CF3)][Nle][NMeAib]L[NMeD]-Piperidide; lactam N-11),HRAS/KRAS (ratio of KD for GDP-bound HRAS wild-type to KD for KRAS),[1]; SPR,C (A compound having a KD ratio of 0.1 or more and less than 3 is denoted as C)
same,NRAS/KRAS (ratio of KD for GDP-bound NRAS wild-type to KD for KRAS),[2]; SPR,B (a compound having 3 or more and less than 10 is denoted as B)
CC[C@H](C)[C@@H]1NC(=O)[C@H](CC(C)C)N(C)C(=O)C[C@@H](C(=O)N2CCOCC2)N(C)C(=O)[C@H](C2CCCC2)N(C)C(=O)C2(CCCC2)NC(=O)[C@@H]2CCCN2C(=O)[C@H](CCc2ccc(C(F)(F)F)c(Cl)c2)NC(=O)CN(C)C(=O)[C@H](Cc2ccc(C)cc2)N(CCC(C)(C)C)C(=O)[C@@H]2CCN2C(=O)[C@H](C)N(C)C1=O [PP0087] ([NMeL]I[NMeA][Aze][X35][Sar][hPhe(3-Cl-4-CF3)]P[Ac5c][NMeGly(cPent)][NMeD]-Morpholide; lactam N-11),HRAS/KRAS (ratio of KD for GDP-bound HRAS wild-type to KD for KRAS),[1]; SPR,C (A compound having a KD ratio of 0.1 or more and less than 3 is denoted as C)
same,NRAS/KRAS (ratio of KD for GDP-bound NRAS wild-type to KD for KRAS),[2]; SPR,C (A compound having a KD ratio of 0.1 or more and less than 3 is denoted as C)
